The source made the active and inactive calls.
Key:
[1] = target: Beta-galactosidase (Escherichia coli, UniProt Q8VNN2); experiment: Dose response counterscreen for EBI2 assay utilizing the enzyme, b-galactosidase.; assay type: functional
[2] = test system: Vero; experiment: viability loss in Vero cells – cell-based, plate reader, cherry-pick samples, cytotoxicity control, dose response (AID 687020); assay type: functional; conditions: Chlorocebus sabaeus
[3] = target: T1, Low molecular weight phosphotyrosine protein phosphatase (Homo sapiens, UniProt P24666); assay type: functional; conditions: read-out: IC50_Mean
T1 sequence (P24666 whole entry): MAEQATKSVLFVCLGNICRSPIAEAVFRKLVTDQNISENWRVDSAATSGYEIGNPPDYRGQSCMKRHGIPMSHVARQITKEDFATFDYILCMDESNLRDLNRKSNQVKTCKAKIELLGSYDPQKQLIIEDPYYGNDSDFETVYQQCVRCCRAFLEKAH

[4] = target: T1, Low molecular weight phosphotyrosine protein phosphatase; assay type: functional; conditions: read-out: IC50_Mean; remark: listed apart in the source
[5] = test system: Vero; experiment: viability of Vero cells under compound – cytotoxicity control for flavivirus capping enzyme inhibitors (AID 588742); assay type: functional; conditions: Chlorocebus sabaeus
[6] = target: T2, Interleukin-8 (Homo sapiens, UniProt P10145); experiment: Dose Response confirmation of uHTS small molecule hits for cystic fibrosis induced NFkb Inhibitors in a PAF-induced IL8 counterscreen.; assay type: functional; conditions: read-out: IC50_Mean
T2 sequence (P10145 whole entry): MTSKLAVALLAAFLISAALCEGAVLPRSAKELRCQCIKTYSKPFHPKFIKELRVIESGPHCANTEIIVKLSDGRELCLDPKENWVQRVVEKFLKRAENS

[7] = Fluorescence-based cell-based high throughput dose response assay for inhibitors of the interaction of nucleotide-binding oligomerization domain containing 2 (NOD2) and the receptor-interacting serine-threonine kinase 2 (RIPK2).; assay type: functional; conditions: Homo sapiens
[8] = target: T2, Interleukin-8; experiment: Dose Response confirmation of uHTS small molecule hits for cystic fibrosis induced NFkb Inhibitors in a TNFa-induced IL8 counterscreen.; assay type: functional; conditions: read-out: IC50_Mean
[9] = target: Paired box protein Pax-8 (Homo sapiens, UniProt Q06710); experiment: PAX8 transcriptional activity inhibition in RMG-I – RMG-I cells, luciferase, cherry-pick, dose response (AID 687027); assay type: functional, cell-based;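 also: luciferase reporter driven by Pax8 target thyroperoxidase promoter measured by SteadyGlo luminescence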
[10] = test system: HEK293; experiment: EBV LMP1 TES2 canonical NF-kB signalling blockers – cell-based, HEK293, luciferase, cherry-pick, dose response (AID 588343); assay type: functional; conditions: Homo sapiens
[11] = target: Arf-GAP with SH3 domain, ANK repeat and PH domain-containing protein 1 (Homo sapiens, UniProt Q9ULH1); assay type: functional;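 also: biochemical fluorescence polarization dose–response screen measuring inhibition of ASAP1; ASAP1 GAP domain stimulating GTP hydrolysis by truncated human ARF1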
[12] = target: T3, Heat shock factor protein 1 (Mus musculus, UniProt P38532); experiment: decrease of HSF1-responsive luciferase luminescence – cell-based, NIH3T3, dose retest, confirmation (AID 2382); assay type: functional;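 also: NIH3T3 fibroblasts with HSF1-driven luciferase reporter stressed by proteasome inhibitor MG132; luminescence from HSF1-driven luciferase expression after 8 hours of MG132 stress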
T3 sequence (P38532 whole entry): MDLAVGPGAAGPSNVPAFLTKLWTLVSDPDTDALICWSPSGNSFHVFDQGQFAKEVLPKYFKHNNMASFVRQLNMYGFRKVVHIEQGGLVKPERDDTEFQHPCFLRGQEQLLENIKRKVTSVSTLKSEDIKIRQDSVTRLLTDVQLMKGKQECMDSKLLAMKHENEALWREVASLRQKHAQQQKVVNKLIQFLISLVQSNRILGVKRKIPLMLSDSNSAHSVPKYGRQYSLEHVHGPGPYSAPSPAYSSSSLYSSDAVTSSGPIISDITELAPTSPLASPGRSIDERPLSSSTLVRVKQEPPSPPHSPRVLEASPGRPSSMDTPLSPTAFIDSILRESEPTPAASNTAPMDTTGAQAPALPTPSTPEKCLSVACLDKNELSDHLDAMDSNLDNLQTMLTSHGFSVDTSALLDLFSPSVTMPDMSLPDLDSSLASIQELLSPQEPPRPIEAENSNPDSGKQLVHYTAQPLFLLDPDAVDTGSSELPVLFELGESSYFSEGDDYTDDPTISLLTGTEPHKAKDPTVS

[13] = target: DNA (cytosine-5)-methyltransferase 1 (Homo sapiens, UniProt P26358); experiment: inhibition of DNA methylation by DNMT1 – biochemical, fluorescent molecular beacon, confirmation (AID 602386); assay type: functional
[14] = target: Phospholipase A2 (Homo sapiens, UniProt P04054); assay type: functional;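 also: confirmatory dose-response counterscreen on phospholipase A2, testing hits that came from an ultra-high-throughput screen for ATG4B inhibitors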
[15] = target: T4, Hexokinase HKDC1 (Homo sapiens, UniProt Q2TB90); experiment: inhibition of HKDC1 glucose phosphorylation – biochemical, W721R variant, dose response (AID 504729); assay type: functional
T4 sequence (Q2TB90 whole entry): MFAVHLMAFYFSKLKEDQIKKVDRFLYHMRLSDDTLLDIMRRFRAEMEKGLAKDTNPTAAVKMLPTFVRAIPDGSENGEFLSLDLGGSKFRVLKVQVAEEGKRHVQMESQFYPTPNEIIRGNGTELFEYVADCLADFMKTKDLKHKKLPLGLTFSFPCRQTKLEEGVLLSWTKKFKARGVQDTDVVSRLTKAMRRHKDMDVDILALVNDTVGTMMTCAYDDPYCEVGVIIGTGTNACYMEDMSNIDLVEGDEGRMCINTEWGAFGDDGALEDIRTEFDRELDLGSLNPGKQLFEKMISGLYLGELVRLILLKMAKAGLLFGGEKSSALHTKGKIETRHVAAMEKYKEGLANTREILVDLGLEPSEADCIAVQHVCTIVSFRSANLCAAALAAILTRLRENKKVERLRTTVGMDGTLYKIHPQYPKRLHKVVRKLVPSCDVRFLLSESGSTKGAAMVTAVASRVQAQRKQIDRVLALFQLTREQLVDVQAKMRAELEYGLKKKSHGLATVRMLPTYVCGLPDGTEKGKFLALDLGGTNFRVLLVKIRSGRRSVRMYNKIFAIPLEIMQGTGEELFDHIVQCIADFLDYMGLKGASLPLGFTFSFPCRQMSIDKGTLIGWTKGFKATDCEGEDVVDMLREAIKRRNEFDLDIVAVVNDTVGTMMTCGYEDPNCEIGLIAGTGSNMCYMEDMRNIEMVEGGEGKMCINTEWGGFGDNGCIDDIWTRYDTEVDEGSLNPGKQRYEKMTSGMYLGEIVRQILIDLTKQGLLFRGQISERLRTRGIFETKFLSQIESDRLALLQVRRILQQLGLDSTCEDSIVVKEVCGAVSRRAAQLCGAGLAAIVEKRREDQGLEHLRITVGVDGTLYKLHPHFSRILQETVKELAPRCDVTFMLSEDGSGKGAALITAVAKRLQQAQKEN

[16] = target: T5, Cysteine protease ATG4B (Homo sapiens, UniProt Q9Y4P1); assay type: functional;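 also: Fluorescence-based dose-response confirmation assay measuring inhibition of ATG4B activity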
T5 sequence (Q9Y4P1 whole entry): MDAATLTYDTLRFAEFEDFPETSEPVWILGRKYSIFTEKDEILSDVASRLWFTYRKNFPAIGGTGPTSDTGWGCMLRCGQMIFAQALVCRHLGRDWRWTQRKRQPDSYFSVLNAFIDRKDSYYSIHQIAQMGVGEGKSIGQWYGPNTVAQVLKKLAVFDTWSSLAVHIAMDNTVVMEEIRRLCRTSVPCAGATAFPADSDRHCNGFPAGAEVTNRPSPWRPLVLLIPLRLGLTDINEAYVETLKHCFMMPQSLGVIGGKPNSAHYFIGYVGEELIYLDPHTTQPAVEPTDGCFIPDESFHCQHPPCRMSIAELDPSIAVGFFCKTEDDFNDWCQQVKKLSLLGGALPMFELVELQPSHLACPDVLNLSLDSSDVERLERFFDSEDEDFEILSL

[17] = target: Large T antigen (Simian virus 40, UniProt P03070); assay type: functional, Betapolyomavirus macacae;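 also: Confirmatory-stage PubChem screen for compounds that inhibit SV40 T antigen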
[18] = reduction of Shn3 3'UTR-driven luciferase in osteoblasts – cell-based, Clone20 osteoblasts, firefly luciferase, cherry-picked, dose response (AID 624132); assay type: functional;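 also: firefly luciferase luminescence from reporter carrying the Shn3 3'UTR in osteoblasts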
[19] = loss of viability in HepG2 cells – cell-based, CellTiter-Glo, cherry-picked, cytotoxicity control for Shn3 inhibitor project, dose response (AID 624134); assay type: functional
[20] = target: Delta-type opioid receptor (Homo sapiens, UniProt P41143); experiment: Counterscreen for agonists of heterodimerization of the mu 1 (OPRM1) and delta 1 (OPRD1) opioid receptors: Luminescence-based cell-based high throughput dose response assay to identify agonists of OPRD1 homodimerization. [Related pubchem assays (depositor defined):AID504326, AID504355, AID504692, AID504904, AID504905]; assay type: functional
[21] = non-specific 3'UTR reporter inhibition in Clone20-Shn3RL – cell-based, Renilla luciferase, cherry-picked, counter-screen for Shn3 inhibitor project, dose response (AID 624133); assay type: functional
[22] = target: 5-hydroxytryptamine receptor 5A (Homo sapiens, UniProt P47898); experiment: Counterscreen for agonists of OPRM1-OPRD1 heterodimerization: luminescence-based cell-based high throughput dose response assay to identify agonists of 5-hydroxytryptamine (serotonin) 5A receptor (HTR5A). [Related pubchem assays (depositor defined):AID504326, AID504355, AID504692, AID504904, AID504905]; assay type: functional
[23] = target: Mu-type opioid receptor (Homo sapiens, UniProt P35372); experiment: Counterscreen for agonists of heterodimerization of the mu 1 (OPRM1) and delta 1 (OPRD1) opioid receptors: Luminescence-based cell-based high throughput dose response assay to identify agonists of OPRM1 homodimerization.; assay type: functional;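 also: U2OS cells expressing OPRM1 and beta-arrestin as split beta-galactosidase partners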
[24] = Counterscreen for activators of the function of SWI/SNF related, matrix associated, actin dependent regulator of chromatin, subfamily a, member 2 (SMARCA2, BRM): Luminescence-based cell-based high throughput dose response assay to identify non-selective compounds using the VP16 reporter assay.; assay type: functional
[25] = target: SWI/SNF-related matrix-associated actin-dependent regulator of chromatin subfamily A member 2 (Homo sapiens, UniProt P51531); experiment: Luminescence-based cell-based high throughput dose response assay to identify activators of the function of SWI/SNF related, matrix associated, actin dependent regulator of chromatin, subfamily a, member 2 (SMARCA2, BRM).; assay type: functional
Chain of SWI/SNF-related matrix-associated actin-dependent regulator of chromatin subfamily A member 2 (P51531 whole entry): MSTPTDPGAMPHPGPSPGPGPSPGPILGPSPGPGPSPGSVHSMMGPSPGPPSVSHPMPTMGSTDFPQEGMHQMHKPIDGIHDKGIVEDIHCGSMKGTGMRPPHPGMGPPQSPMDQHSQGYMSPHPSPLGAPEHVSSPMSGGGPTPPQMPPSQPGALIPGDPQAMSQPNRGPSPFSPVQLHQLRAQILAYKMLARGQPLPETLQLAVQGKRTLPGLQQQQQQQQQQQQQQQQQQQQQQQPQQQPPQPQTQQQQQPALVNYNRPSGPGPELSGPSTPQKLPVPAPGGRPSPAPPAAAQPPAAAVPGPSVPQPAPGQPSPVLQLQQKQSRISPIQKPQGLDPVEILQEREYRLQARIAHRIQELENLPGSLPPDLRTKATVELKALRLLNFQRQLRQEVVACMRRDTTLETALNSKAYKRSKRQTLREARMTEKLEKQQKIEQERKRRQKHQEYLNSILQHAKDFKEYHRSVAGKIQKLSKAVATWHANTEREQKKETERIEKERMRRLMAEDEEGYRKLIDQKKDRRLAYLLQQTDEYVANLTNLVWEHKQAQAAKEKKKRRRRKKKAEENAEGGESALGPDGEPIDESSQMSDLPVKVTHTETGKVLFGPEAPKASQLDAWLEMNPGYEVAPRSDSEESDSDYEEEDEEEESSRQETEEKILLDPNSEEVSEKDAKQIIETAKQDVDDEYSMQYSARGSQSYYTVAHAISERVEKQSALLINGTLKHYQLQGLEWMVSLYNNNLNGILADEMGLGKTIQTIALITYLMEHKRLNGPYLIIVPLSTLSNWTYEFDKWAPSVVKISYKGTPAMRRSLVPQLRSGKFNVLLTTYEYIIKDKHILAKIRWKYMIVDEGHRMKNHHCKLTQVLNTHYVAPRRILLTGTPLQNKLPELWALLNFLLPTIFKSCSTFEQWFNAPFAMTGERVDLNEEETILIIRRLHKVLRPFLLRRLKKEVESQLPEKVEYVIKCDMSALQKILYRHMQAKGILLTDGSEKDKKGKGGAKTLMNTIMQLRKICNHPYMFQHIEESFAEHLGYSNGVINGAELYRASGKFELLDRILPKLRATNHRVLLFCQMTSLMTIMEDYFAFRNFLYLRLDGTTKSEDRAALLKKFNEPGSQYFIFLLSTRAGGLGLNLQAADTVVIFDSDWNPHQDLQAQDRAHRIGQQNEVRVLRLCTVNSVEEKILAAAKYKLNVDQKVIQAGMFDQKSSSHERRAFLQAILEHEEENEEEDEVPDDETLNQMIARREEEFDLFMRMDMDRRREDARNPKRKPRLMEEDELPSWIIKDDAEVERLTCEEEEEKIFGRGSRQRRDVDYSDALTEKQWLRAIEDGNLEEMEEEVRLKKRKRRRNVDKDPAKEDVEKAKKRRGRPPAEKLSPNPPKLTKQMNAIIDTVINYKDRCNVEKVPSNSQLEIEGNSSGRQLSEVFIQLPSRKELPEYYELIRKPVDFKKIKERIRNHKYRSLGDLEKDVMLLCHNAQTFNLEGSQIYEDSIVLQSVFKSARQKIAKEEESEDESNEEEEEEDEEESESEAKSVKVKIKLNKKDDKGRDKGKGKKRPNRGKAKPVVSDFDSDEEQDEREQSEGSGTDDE

Chain of Beta-galactosidase (Q8VNN2 whole entry): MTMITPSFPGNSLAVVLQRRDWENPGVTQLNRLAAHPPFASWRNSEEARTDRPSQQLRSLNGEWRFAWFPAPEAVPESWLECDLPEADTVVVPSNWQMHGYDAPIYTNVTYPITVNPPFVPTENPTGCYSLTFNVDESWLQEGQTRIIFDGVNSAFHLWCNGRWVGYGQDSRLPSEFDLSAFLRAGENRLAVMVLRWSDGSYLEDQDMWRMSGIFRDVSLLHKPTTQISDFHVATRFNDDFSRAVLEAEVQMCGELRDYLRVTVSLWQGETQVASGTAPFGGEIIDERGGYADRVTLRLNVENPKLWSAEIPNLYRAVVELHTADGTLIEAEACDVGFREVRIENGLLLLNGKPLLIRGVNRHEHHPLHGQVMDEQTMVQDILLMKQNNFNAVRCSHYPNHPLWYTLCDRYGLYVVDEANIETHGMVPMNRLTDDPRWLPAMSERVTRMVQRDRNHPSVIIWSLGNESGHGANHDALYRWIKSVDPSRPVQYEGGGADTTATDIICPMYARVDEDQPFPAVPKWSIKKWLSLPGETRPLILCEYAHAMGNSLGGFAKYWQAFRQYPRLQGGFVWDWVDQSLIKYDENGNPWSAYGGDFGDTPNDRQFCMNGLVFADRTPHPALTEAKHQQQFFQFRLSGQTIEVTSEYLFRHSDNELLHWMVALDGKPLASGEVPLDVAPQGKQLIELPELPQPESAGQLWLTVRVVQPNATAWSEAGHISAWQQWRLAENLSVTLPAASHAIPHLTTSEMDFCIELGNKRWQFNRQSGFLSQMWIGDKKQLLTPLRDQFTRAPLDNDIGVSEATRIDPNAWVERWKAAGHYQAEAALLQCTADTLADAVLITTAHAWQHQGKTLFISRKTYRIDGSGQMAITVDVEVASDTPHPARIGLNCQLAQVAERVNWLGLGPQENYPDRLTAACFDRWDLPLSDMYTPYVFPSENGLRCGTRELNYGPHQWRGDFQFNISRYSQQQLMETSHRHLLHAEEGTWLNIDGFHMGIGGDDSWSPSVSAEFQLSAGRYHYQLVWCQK
Chain of Phospholipase A2 (P04054 whole entry): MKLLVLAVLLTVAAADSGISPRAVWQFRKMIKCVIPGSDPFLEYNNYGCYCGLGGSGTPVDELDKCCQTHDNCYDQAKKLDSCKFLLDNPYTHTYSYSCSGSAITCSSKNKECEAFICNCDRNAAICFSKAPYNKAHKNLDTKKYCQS
Chain of 5-hydroxytryptamine receptor 5A (P47898 whole entry): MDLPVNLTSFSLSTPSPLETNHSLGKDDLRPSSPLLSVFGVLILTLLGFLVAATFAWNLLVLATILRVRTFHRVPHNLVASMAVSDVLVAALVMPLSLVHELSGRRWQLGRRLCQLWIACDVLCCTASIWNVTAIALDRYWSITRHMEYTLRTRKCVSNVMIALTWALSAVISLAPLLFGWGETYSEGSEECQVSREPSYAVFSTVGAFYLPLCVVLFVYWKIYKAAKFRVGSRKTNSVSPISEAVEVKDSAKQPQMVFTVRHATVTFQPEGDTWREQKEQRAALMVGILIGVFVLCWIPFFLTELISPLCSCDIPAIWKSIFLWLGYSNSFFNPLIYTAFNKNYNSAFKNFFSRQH
Chain of Paired box protein Pax-8 (Q06710 whole entry): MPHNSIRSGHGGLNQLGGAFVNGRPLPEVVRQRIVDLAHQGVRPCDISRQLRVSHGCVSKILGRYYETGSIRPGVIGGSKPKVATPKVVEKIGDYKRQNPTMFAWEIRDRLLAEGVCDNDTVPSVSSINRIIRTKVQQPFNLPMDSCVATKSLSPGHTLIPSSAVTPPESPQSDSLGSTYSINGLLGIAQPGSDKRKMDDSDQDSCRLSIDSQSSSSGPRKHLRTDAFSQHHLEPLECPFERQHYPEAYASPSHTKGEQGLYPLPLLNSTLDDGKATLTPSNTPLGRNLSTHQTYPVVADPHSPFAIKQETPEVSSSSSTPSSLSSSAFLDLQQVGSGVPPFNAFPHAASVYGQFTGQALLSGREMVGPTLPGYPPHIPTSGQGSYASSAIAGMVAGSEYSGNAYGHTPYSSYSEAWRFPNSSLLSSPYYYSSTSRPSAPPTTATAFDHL
Chain of Delta-type opioid receptor (P41143 whole entry): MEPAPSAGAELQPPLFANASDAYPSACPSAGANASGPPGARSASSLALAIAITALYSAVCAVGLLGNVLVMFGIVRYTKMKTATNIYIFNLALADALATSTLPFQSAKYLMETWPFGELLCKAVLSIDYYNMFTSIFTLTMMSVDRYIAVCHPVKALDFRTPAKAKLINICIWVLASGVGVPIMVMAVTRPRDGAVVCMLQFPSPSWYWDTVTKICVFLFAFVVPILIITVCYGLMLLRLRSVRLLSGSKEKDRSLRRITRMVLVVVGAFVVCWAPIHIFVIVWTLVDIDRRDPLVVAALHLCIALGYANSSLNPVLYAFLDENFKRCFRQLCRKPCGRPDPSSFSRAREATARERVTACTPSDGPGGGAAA
Chain of Mu-type opioid receptor (P35372 whole entry): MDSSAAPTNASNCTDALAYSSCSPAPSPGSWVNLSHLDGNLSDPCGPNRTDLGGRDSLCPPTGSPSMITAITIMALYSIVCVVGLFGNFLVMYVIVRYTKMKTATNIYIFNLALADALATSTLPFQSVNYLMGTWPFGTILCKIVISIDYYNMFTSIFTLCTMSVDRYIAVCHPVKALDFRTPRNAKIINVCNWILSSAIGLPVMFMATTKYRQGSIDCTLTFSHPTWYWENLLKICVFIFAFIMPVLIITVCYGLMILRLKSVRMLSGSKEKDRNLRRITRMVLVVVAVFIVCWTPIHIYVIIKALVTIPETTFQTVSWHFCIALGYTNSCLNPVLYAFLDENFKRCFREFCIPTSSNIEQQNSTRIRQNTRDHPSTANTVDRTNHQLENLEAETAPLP

O=C(c1cc2cc(Br)ccc2[nH]1)N1CCC2(CC1)OCCO2
IC50 [1]: > 80 µM (inactive)

CCCn1c(NCc2ccc(N(C)C)cc2)nc2ccccc21
AC50 [2]: 36.6 µM (active)

CCCCc1cc(=O)oc2cc(C)cc(OCC(=O)N3CCC(C(N)=O)CC3)c12
AC50 [2]: 37.5 µM (active)

O=C(/C=C\Nc1ccc2c(c1)OCO2)c1ccc(Cl)s1
IC50 [3]: 19.9 µM (active)
IC50 [4]: > 80 µM (inactive)

CC(=O)OC1CCC2(C)C(CCC3C4CC=C(C(C)=O)C4(C)OC(=O)CC32)C1 (centres undefined)
CC50 [5]: 34.9 µM (active)
IC50 [6]: 0.338 µM (active)
IC50 [7]: 5.12 µM (active)
IC50 [8]: 1.12 µM (active)
AC50 [9]: 6.49 µM (active)
AC50 [10]: 1.65 µM (active)

CCCCN(Cc1ccco1)C(=O)Cn1ncc2c(=O)oc3ccc(C)cc3c21
IC50 [11]: 53.2 µM (inactive)
IC50 [1]: > 80 µM (inactive)
EC50 [12]: > 195 µM (not active)

Cc1cc(/C=C2\C(=O)NC(=O)N(c3ccc(Cl)cc3)C2=O)c(C)n1-c1sc2c(c1C#N)CCCC2
IC50 [13]: 9.52 µM (active)
IC50 [14]: 14.1 µM (active)
IC50 [15]: 10.8 µM (active)
IC50 [16]: 14.7 µM (active)
IC50 [17]: 17.2 µM (active)

O=C(c1ccccc1)C1OC1C(=O)c1ccccc1 (centres undefined)
IC50 [6]: 2.84 µM (active)
IC50 [8]: 6 µM (active)

CN1CCN(Cc2nc3ccccc3c(=O)n2Cc2nc(-c3ccc4ccccc4c3)cs2)CC1
AC50 [18]: 11 µM (active)
AC50 [19]: 8.34 µM (active)
EC50 [20]: > 92.5 µM (inactive)
AC50 [21]: 11.7 µM (active)
EC50 [22]: > 92.5 µM (inactive)
EC50 [23]: > 92.5 µM (inactive)
EC50 [24]: > 91.2 µM (inactive)
EC50 [25]: > 91.2 µM (inactive)

From ChEMBL document CHEMBL1201862, “PubChem BioAssay data set” (2004)
